Data set [1] has as its target T1, hCB1 (Homo sapiens, UniProt P21554). Description: Antagonism of CB1 receptors expressed in CHO cells, cAMP assay against CP 55,940 (Protocol IX.1). In kind it is cell-based. Also noted: expressed in transfected cells; host or cells: CHO (h-CB1/CHO, G418-selected). The conditions noted are these: for inhibition at 10 µM: read-out: hCB1 Antagonism. (Cyclic AMP is a second messenger, typically raised through Gs and lowered through Gi signalling.)

For data set [2], the target named is T1, hCB1. Description: Agonism of CB1 receptors expressed in CHO cells, forskolin cAMP assay (Protocol IX.2). As to conditions: for hCB1 Agonism / activation at 10 µM: at 10 uM, h-CB1/CHO cells, cAMP; for activation at 10 µM: CHO. Also noted: expressed in transfected cells; host or cells: CHO (h-CB1/CHO, G418-selected). In kind it is cell-based. The protocol: (§1) IX. Assay for Determining Agonist and Antagonist Activity to CB1 and CB2 Receptors
2. Agonism of CB1/CB2 Receptors Expressed in CHO Cells
h-CB1/CHO or h-CB2/CHO cells were grown in HAM's F12 DMEM medium (Sigma) with 10% FBS (Hyclone), 1% penicillin-streptomycin solution and 400 μg/ml of G418 (Sigma). 5000 cells were seeded per well in a 96 well plate and incubated for 24 hours at 37° C. in 5% CO2. On the day of assay, cells were washed with warm Krebs Buffer containing 0.1% fatty acid free (FAF) BSA (Sigma) and re-suspended in the same buffer containing 1 mM IBMX. […] At the end of incubation, cells were lysed using lysis reagent from the cAMP estimation kit and cAMP was quantitated by chemiluminescence method described in the manufacturer's instructions (DiscoveRX). EC50 values were calculated from dose response curves by nonlinear regression analysis using PRISM software.

The target of data set [3] is T2, hCB2 (Homo sapiens, UniProt P34972). Description: Antagonism of CB2 receptors expressed in CHO cells, cAMP assay against CP 55,940 (Protocol IX.1). The data set is classed as cell-based. Set-up: expressed in transfected cells; host or cells: CHO (h-CB2/CHO, G418-selected). The conditions noted are these: h-CB2/CHO cells, vs 10 nM CP 55,940; for hCB2 Antagonism: at 10 uM; for inhibition at 10 µM: CHO. The protocol: as §1
T2 sequence (P34972 whole entry): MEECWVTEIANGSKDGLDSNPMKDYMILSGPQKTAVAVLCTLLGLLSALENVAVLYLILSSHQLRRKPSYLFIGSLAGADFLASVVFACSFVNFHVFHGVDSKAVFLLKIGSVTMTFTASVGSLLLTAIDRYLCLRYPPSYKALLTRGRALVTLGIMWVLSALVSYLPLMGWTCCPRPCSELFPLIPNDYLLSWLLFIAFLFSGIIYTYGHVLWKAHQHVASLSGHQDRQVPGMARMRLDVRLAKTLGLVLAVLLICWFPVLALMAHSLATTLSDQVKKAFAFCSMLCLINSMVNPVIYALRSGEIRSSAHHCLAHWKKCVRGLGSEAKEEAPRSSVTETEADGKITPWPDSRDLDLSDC
1. Antagonism of CB1/CB2 Receptors Expressed in CHO Cells.
h-CB1/CHO or h-CB2/CHO cells were grown in HAM's F12 DMEM medium (Sigma) with 10% FBS (Hyclone), 1% penicillin-streptomycin solution and 400 μg/ml of G418 (Sigma). 5000 cells were seeded per well in a 96 well plate and incubated for 24 hours at 37° C. in 5% CO2. On the day of assay, cells were washed with warm Krebs buffer containing 0.1% fatty acid free (FAF) BSA (Sigma) and re-suspended in the same buffer containing 1 mM IBMX. Test antagonist or reference compound (AM 251 (1-(2,4-dichlorophenyl)-5-(4-iodophenyl)-4-methyl-N-(1-piperidyl)pyrazole-3-carboxamide) for CB1 and SR144528 for CB2) diluted in FAFBSA+IBMX+Krebs buffer was added to the cells and incubated for 10 minutes at room temperature. CP 55,940 (30 nM final concentration for CB1 testing and 10 nM of the same for CB2 testing) was added to cells followed by forskolin (10 μM final concentration) and incubated for 30 minutes at room temperature. At the end of incubation, cells were lysed using lysis reagent from the cAMP estimation kit and cAMP was quantitated by the chemiluminescence method described in the manufacturer's instructions (DiscoveRX). EC50 values were calculated from dose response curves by nonlinear regression analysis using PRISM software.

In data set [4] the target is T1, hCB1. Description: In vitro binding assay using hCB1-CHO membranes, [3H]-CP-55,940 displacement (Protocol II). Also noted: expressed in transfected cells; host or cells: CHO (hCB1-CHO, generated in-house). The method in brief: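 Incubated 1 h at 37° C, stopped by rapid vacuum filtration on PEI-precoated GF/B filters, bound radioactivity counted by liquid scintillation.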

Data set [5] concerns the target T2, hCB2. Description: In vitro binding assay using hCB2-CHO membranes, [3H]-CP-55,940 displacement (Protocol IV). Set-up: expressed in transfected cells; host or cells: CHO (hCB2-CHO, generated in-house). The conditions noted are these: for inhibition at 0.3 µM: 1 h, read-out: % Displacement Protocol IV. The gist of the method:
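Compounds were tested at a single 300 nM final concentration for displacing 0.75 nM [3H]-CP-55,940 from hCB2-CHO membranes (1 h, 30 °C, 50 mM Tris pH 7.4, 5 mM MgCl2, 1 mM EDTA, 0.1% BSA). Filter-bound radioactivity was counted, with 0.5 μM unlabelled CP-55,940 for nonspecific binding; results are % displacement.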

Data set [6] has as its target T2, hCB2. Description: Agonism of CB2 receptors expressed in CHO cells, forskolin cAMP assay (Protocol IX.2). Also noted: expressed in transfected cells; host or cells: CHO (h-CB2/CHO, G418-selected). As to conditions: cAMP. In kind it is cell-based. The method in brief: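 CHO cells expressing h-CB2 were treated with compound in Krebs buffer with 0.1% FAF BSA and 1 mM IBMX, plus 10 uM forskolin, for 30 minutes at room temperature. cAMP in lysates was measured by chemiluminescence. EC50 was derived by nonlinear regression of dose–response curves, with CP 55,940 at 10 μM as reference for CB2.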

The next data set addresses CB1 (Rattus norvegicus, UniProt P20272). Description: Rat CB1 receptor binding using brain membrane, [3H]SR141716A displacement (Protocol I). Also noted: CB1 receptor present in a rat brain membrane preparation; from tissue; host or cells: rat brain membrane; inhibition: dose or concentration left out as unconfirmed. As to conditions: 1 h; rat brain membrane, [3H]SR141716A displacement; read-out: % Displacement Protocol I.

The mark [7] stands for this setting: at 10 uM, h-CB1/CHO cells, cAMP, vs 30 nM CP 55,940.
Setting [8] is: hCB2-CHO membranes, [3H]-CP-55,940 displacement.
The mark [9] stands for this setting: h-CB2/CHO cells, read-out: hCB2 Agonism IC50.
[10] abbreviates: hCB2 Agonism IC50, h-CB2/CHO cells.

These results are taken from patent publication US7923465B2, “Cannabinoid receptor ligands, pharmaceutical compositions containing them, and process for their preparation” (priority 2005, dated 2011).

Like-named read-outs stand apart in the source and are kept apart here.

T1 sequence (P21554 whole entry): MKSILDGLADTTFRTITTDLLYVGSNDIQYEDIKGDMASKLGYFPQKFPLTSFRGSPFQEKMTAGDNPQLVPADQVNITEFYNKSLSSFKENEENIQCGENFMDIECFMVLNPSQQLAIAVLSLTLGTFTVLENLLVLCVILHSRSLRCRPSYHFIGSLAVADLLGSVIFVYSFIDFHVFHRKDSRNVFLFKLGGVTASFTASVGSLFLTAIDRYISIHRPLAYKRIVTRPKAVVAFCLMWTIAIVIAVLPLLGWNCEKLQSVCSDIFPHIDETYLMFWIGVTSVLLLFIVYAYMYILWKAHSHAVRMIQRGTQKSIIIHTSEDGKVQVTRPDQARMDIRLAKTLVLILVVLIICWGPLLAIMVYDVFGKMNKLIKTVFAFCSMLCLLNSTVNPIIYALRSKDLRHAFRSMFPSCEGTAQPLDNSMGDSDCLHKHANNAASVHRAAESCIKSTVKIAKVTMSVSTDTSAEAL
Sequence of CB1 (P20272 whole entry): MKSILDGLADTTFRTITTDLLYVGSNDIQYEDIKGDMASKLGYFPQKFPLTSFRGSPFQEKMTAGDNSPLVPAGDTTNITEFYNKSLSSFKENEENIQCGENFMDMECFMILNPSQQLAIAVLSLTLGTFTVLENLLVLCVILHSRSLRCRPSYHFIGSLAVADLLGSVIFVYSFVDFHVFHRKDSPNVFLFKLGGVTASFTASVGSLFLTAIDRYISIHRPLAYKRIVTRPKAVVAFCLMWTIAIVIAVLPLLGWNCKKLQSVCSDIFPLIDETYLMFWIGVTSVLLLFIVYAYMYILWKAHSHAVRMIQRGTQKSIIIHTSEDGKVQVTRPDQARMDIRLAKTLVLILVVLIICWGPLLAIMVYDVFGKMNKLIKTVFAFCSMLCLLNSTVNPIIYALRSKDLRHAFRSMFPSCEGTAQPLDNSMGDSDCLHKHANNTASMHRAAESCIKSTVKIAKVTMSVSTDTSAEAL

Usually IC50 stands for the concentration that gives 50% inhibition. `O=C(NCC1CCOCC1)c1nn(-c2ccc(F)cc2F)c2c1C1CCC2C1` (centres unmarked) [Example 316, N(3)-(Tetrahydro-2H-4-pyranmethyl)-1-(2,4-difluorophenyl)-4,5,6,7-tetrahydro-1H-4,7-methano-indazole-3-carboxamide]: the “hCB1 Antagonism” value at hCB1 [1] (setting [7]) is listed as 2% at 10 uM. At hCB1 [2], the “hCB1 Agonism” value turned out to be 18.53% at. Also, on hCB2 [3], the “hCB2 Antagonism” value is 37.63% at. In addition, at hCB1 [4], the “% Displacement Protocol II” value is 13.83%. Moreover, the “% Displacement Protocol IV” value at hCB2 [5] (setting [8]) is on record as 66.65%. The IC50 on hCB2 [6] (setting [9]) was 1.2 to 4.27 nM.

For orientation: melting point means the temperature of the solid-liquid transition. Compound `O=C(NCc1ccccc1F)c1nn(-c2ccc(Cl)cc2Cl)c2c1C1CCC2C1` (centres unmarked) [Example 245, N(3)-(2-Fluorobenzyl)-1-(2,4-dichlorophenyl)-4,5,6,7-tetrahydro-1H-4,7-methano-indazole-3-carboxamide] showed a melting point of 54 °C. Moreover, the inhibition at 10 µM at hCB1 [1] (setting [7]) came to 70.7%. The activation at 10 µM at hCB1 [2] worked out at 0%. The compound further gave an inhibition at 10 µM on hCB2 [3] of 32.9%. Besides, the inhibition at 0.3 µM at hCB2 [5] (setting [8]) was determined as 84.8%. At hCB2 [6] (setting [10]), the IC50 came out at 50.4 nM.

Turning to `O=C(N[C@@H](CO)c1ccccc1)c1nn(-c2ccc(F)cc2F)c2c1C1CCC2C1` (stereo partly drawn) [Example 320, N(3)-[(1R)-2-Hydroxy-1-phenylethyl]-1-(2,4-difluorophenyl)-4,5,6,7-tetrahydro-1H-4,7-methano-indazole-3-carboxamide], the inhibition at 10 µM on hCB1 [1] (setting [7]) is 0%; against hCB2 [3], 22.5%. In addition, the activation at 10 µM at hCB1 [2] stood at 29.1%. Moreover, the inhibition at 0.3 µM on hCB2 [5] was 67.8%. Further, the IC50 at hCB2 [6] (setting [9]) is 0.76 to 1.25 nM.

On to `O=C(NNc1ccccc1F)c1nn(-c2ccc(F)cc2F)c2c1C1CCC2C1` (centres unmarked) [Example 288, N(3)-[(2-Fluorophenyl)amino]-1-(2,4-difluorophenyl)-4,5,6,7-tetrahydro-1H-4,7-methano-indazole-3-carboxamide], for which the melting point was 172 to 175 °C. At hCB1 [1] (setting [7]), the inhibition at 10 µM came out at 55.3%. The activation at 10 µM at hCB1 [2] is 0%. This compound also gave an inhibition at 10 µM against hCB2 [3] of 17.1%. In addition, the inhibition at 0.3 µM at hCB2 [5] (setting [8]) was 60.8%. This compound also showed an IC50 at hCB2 [6] (setting [10]) of 4.76 nM.

`CC(C)(C)NC(=O)c1nn(-c2ccc(F)cc2F)c2c1C1CCC2C1` (centres unmarked) [Example 303, N(3)-(tert-Butyl)-1-(2,4-difluorophenyl)-4,5,6,7-tetrahydro-1H-4,7-methano-indazole-3-carboxamide]: the inhibition at 10 µM at hCB1 [1] (CHO) amounted to 0%; on hCB2 [3], 17.6%. Also, the IC50 at hCB1 [2] was 10900 nM; at hCB2 [6] (setting [9]), 0.61 nM. The inhibition at 0.3 µM on hCB2 [5] came out at 89.7%.

On to `O=C(Nc1ccc(F)cc1F)c1nn(-c2ccc(Cl)cc2Cl)c2c1C1CCC2C1` (centres unmarked) [Example 244, N(3)-(2,4-Difluorophenyl)-1-(2,4-dichlorophenyl)-4,5,6,7-tetrahydro-1H-4,7-methano-indazole-3-carboxamide], for which the melting point was in the range of 152 to 155 °C. Further, the inhibition at 10 µM at hCB1 [1] (setting [7]) is 61.5%. Moreover, on hCB1 [2], the activation at 10 µM stood at 0%. Also, the inhibition at 10 µM at hCB2 [3] was 25.3%. Also, at hCB2 [5], the inhibition at 0.3 µM came out at 88.3%. Moreover, at hCB2 [6] (setting [9]), the IC50 stood at 5.66 nM.

On to `O=C(NCc1ccc(F)cc1F)c1nn(-c2ccc(Cl)cc2Cl)c2c1C1CCC2C1` (centres unmarked) [Example 247, N(3)-(2,4-Difluorobenzyl)-1-(2,4-dichlorophenyl)-4,5,6,7-tetrahydro-1H-4,7-methano-indazole-3-carboxamide], for which the melting point is 73 to 76 °C. In addition, at hCB1 [1] (setting [7]), the inhibition at 10 µM was determined as 75.3%. Also, the activation at 10 µM on hCB1 [2] was determined as 0%. Also, the inhibition at 10 µM at hCB2 [3] came to 29.2%. For the same compound, on hCB2 [5] (setting [8]), the inhibition at 0.3 µM was 79.1%. For the same compound, at hCB2 [6] (setting [10]), the IC50 came to 5.44 nM.

In turn, `O=C(NC1CCC1)c1nn(-c2ccc(F)cc2F)c2c1C1CCC2C1` (centres unmarked) [Example 315, N(3)-Cyclobutyl-1-(2,4-difluorophenyl)-4,5,6,7-tetrahydro-1H-4,7-methano-indazole-3-carboxamide] gave a melting point of 123 to 125 °C. The inhibition at 10 µM on hCB1 [1] (setting [7]) stood at 1%. The activation at 10 µM at hCB1 [2] came to 12.6%. The same compound came in with an inhibition at 10 µM on hCB2 [3] of 16.1%. Besides, the inhibition at 0.3 µM at hCB2 [5] was 64.2%. For the same compound, the IC50 at hCB2 [6] (setting [9]) lay in the range of 0.16 to 1.76 nM.

Turning to `CC(C)(C)NC(=O)c1nn(-c2ccc(F)cc2F)c2c1[C@@H]1CC[C@H]2C1` (single isomer, unassigned) [Example 305], the “hCB1 Antagonism” value on hCB1 [1] (setting [7]) amounted to 0% at 10 uM. Moreover, the “hCB1 Agonism” value at hCB1 [2] is reported as 20% at. At hCB2 [3], the “hCB2 Antagonism” value worked out at 37.45% at. For the same compound, the IC50 on hCB2 [6] (setting [9]) turned out to be 2.16 nM.

Consider `CC(C)(C)NC(=O)c1nn(-c2ccc(F)cc2)c2c1C1CCC2C1` (centres unmarked) [Example 323, N(3)-(tert-Butyl)-1-(4-fluorophenyl)-4,5,6,7-tetrahydro-1H-4,7-methano-indazole-3-carboxamide], for which the melting point lay within 131 to 133 °C. Moreover, the inhibition at 10 µM on hCB1 [1] (setting [7]) was found to be 0%. Also, the activation at 10 µM on hCB1 [2] came out at 0%. The inhibition at 10 µM on hCB2 [3] is 18%. Besides, the inhibition at 0.3 µM on hCB2 [5] stood at 82.5%. Further, the IC50 on hCB2 [6] (setting [9]) amounted to 14.1 nM.

Turning to `O=C(NCC1CC1)c1nn(-c2ccc(F)cc2F)c2c1C1CCC2C1` (centres unmarked) [Example 314, N(3)-Cyclopropanmethyl-1-(2,4-difluorophenyl)-4,5,6,7-tetrahydro-1H-4,7-methano-indazole-3-carboxamide], the melting point was 113 to 115 °C. Moreover, the inhibition at 10 µM on hCB1 [1] (setting [7]) turned out to be 0%. The same compound showed an activation at 10 µM at hCB1 [2] of 3.41%. The same compound had an inhibition at 10 µM on hCB2 [3] of 22.9%. The inhibition at 0.3 µM at hCB2 [5] was 64.9%. The IC50 at hCB2 [6] (setting [9]) turned out to be 8.52 nM.

As for `O=C(NCc1ccccc1)c1n[nH]c2c1C1CC3CC(CC2C3)C1` [Example 186, N(7)-Benzyl-5,6-diazatetracyclo[7.3.1.1^3,11.0^4,8]tetradeca-4(8)-6-diene-7-carboxamide], the inhibition at 10 µM at hCB1 [1] (setting [7]) was found to be 0%; on hCB2 [3], 21%. The compound further gave an activation at 10 µM on hCB1 [2] of 29.4%. Besides, the inhibition on CB1 was 17.2%. For the same compound, at hCB2 [5] (setting [8]), the inhibition at 0.3 µM worked out at 59.1%. This compound yielded an IC50 at hCB2 [6] (setting [10]) of 8.51 nM.
